Laboratory results: US11058680B2, “Combinations of opioid/TLR4 antagonists and acetaminophen for use in the treatment of emotional pain and insomnia” (Allodynic Threapeutics, LLC, priority 2016, dated 2021)

How the values were obtained:
[1] = system: patient with chronic low back pain, tendinitis and fear from a near airplane crash; assay: Example 5 case study; format: in vivo, human; details: acetaminophen and ibuprofen prior to study; naltrexone 2.25 mg and acetaminophen 325 mg Q.I.D
[2] = system: patient with lower back and leg pain and emotional pain due to separation from a child; assay: Example 12 case study, patient diary; details: for API, average pain intensity (0-10 NRS) / Insomnia (0-10 NRS) / PRSI, Pain Related Sleep Interference (0-10 NRS) / WEP, Worst Emotional Pain (0-10 NRS) / WPI, Worst Pain Intensity (0-10 NRS): Ibuprofen 800 mg T.I.D. PRN 2006-2010
[3] = system: patients with low back pain (LBP); assay: Naltrexone/acetaminophen open-label pilot study for low back pain, daily patient diary (WPI, API, WEP, PRSI, insomnia, PGIC, energy, activity); format: in vivo, human
Experimental: Twenty patients of whom 16 had chronic low back pain (CLBP), three had acute LBP and one had pain due to Temporomandibular disorders (TMD) were evaluated in an open label pilot study. […] The patient reported diary questionnaire included the following questions.
Question No. 1: Choose one number that best describes the “Worst Pain” in your lower back in the last 24 hours (WPI) [measured on an 11-point NRS (0=no pain, 10=worst pain possible)].
Question No. 2: Choose one number that best describes the “Average Pain” in your lower back in the last 24 hours (API) [measured on an 11-point NRS (0=no pain, 10=worst pain possible)].
Question No. 3: Choose one number that best describes the “Worst Emotional Pain” you experienced in the last 24 hours. (E.g., “Today, I experienced hurt feelings, and/or anger, and/or fear, and/or sadness”).
Question No. 4: Choose one number that best describes how pain has interfered with your sleep in the last 24 hours [Pain Related Sleep Interference (PRSI) measured on an 11-point NRS (0=no interference, 10=complete interference)].
Question No. 5: Have you experienced difficulty sleeping or falling asleep (insomnia) in the last 24 hours [measured on an 11-point NRS (0=no insomnia, 10=worst insomnia possible)].

[4] = system: patient with emotional pain due to football team losses and low back pain; assay: Example 4 case study, patient diary; format: in vivo, human
[5] = system: patient with emotional pain due to severe pain caused by acute spinal disk herniation; assay: Example 6 case study, patient diary; format: in vivo, human
Experimental: They scheduled an elective inguinal hernia surgery during a time that they had already planned time off from work for their spouse and themself. […] The day after the incident, they took acetaminophen 3000 mg. […] They were in the process of purchasing a home, which they found stressful.

[6] = system: patient with lower back pain and emotional pain due to conflict at work; assay: Example 7 case study; format: in vivo, human; details: acetaminophen 4 times, one day, naltrexone 2.25 mg and Tylenol 325 mg twice daily
[7] = system: patient with lower back pain and emotional pain due to anger with poorly-performing employees; assay: Example 10 case study, patient diary; format: in vivo, human
Source text: A person building contractor with a history of lower back pain reported emotional pain due to frustration with their three employees' poor job performance. […] Treatment with naltrexone and acetaminophen eliminated their physical, as well as their emotional pain, which happened overnight.

[8] = system: patient with emotional pain due to relationship break-up; assay: Example 11 case study, patient diary; format: in vivo, human; details: APAP 325 mg Q.I.D., Sep. 25-Oct. 2, 2015
migraine = details: literature, Brandes et al. JAMA 2007; cited from earlier work
[9] = system: patient with emotional pain due to adjustment disorder, grieving passing of a pet; assay: Example 2 case study, emotional pain diary on 4-point scale (0=none, 1=mild, 2=moderate, 3=severe); format: in vivo, human; details: xanax before study treatment
Source text: The patient experienced a stressful life event (bereavement) that interfered with social functioning. […] The emotional pain intensity was rated on a 4-point unipolar scale (0=none, 1=mild, 2=moderate, 3=severe).

[10] = Naltrexone 2.25 mg Q.I.D./Clonidine 0.025 mg Q.I.D. 2010-2015, APAP 325 mg Q.I.D. Jun. 29-Jul. 6, 2015, Naltrexone 2.5 mg Q.I.D. to Jul. 8, 2015, Naltrexone 2.25 mg/APAP 325 mg Q.I.D. Jul. 9-Oct. 4, 2015
[11] = on treatment, last day, APAP 325 mg alone (N = 8, avg 9.83 days), NTX/APAP 2.25/325 mg (n = 18, avg 25.4 days)
[12] = treatment period, APAP 325 mg alone, NTX/APAP 2.25/325 mg
[13] = APAP 325 mg Q.I.D. Jun. 29-Jul. 8, 2015, NTX 2.25 mg/APAP 325 mg Q.I.D. Jul. 9-Aug. 9, 2015
[14] = APAP 325 mg Q.I.D., NTX 2.25 mg/APAP 325 mg Q.I.D.
[15] = APAP 1000 mg TID, Aug. 18-19, 2015
[16] = acetaminophen 3000 mg, the day after the incident
[17] = APAP 325 mg Q.I.D., Sep. 29-Oct. 1, 2015
[18] = acetaminophen for three days, naltrexone and acetaminophen, overnight

CC(C)Cc1ccc(C(C)C(=O)O)cc1 (stereo not shown) [Ibuprofen]
relief of physical pain (low back, foot) [1]: without significant relief | API, average pain intensity (0-10 NRS) [2, 10]: 5.5 | Insomnia (0-10 NRS) [2, 10]: 9 | PRSI, Pain Related Sleep Interference (0-10 NRS) [2, 10]: 7 | WEP, Worst Emotional Pain (0-10 NRS) [2, 10]: 7 | WPI, Worst Pain Intensity (0-10 NRS) [2, 10]: 6

CC(=O)Nc1ccc(O)cc1 [acetaminophen]
API Avg., average pain intensity (0-10 NRS) [3, 11]: 4.25 | Activity Avg., change in activity level (1-7 Likert) [3, 11]: 4.67 | Energy Avg., change in energy level (1-7 Likert) [3, 11]: 4.67 | Insomnia Avg. (0-10 NRS) [3, 11]: 4.33 | PGIC Avg., Patient Global Impression of Change (1-7 Likert, 7 = very much improved) [3, 11]: 5.00 | PRSI Avg., Pain Related Sleep Interference (0-10 NRS) [3, 11]: 4.00 | WEP Avg., Worst Emotional Pain (0-10 NRS) [3, 11]: 5.17 | WPI Avg., Worst Pain Intensity (0-10 NRS) [3, 11]: 5.25 | Mean Improvement from Baseline, API (0-10 NRS) [3, 12]: 1.28 | Mean Improvement from Baseline, Insomnia (0-10 NRS) [3, 12]: −0.23 | Mean Improvement from Baseline, PRSI (0-10 NRS) [3, 12]: 0.90 | Mean Improvement from Baseline, WEP (0-10 NRS) [3, 12]: 0.14 | Mean Improvement from Baseline, WPI (0-10 NRS) [3, 12]: 1.43 | API, average pain intensity (0-10 NRS) [4, 13]: 3 | Insomnia (0-10 NRS) [4, 13]: 0 | PRSI, Pain Related Sleep Interference (0-10 NRS) [4, 13]: 0 | WEP, Worst Emotional Pain (0-10 NRS) [4, 13]: 2 | WPI, Worst Pain Intensity (0-10 NRS) [4, 13]: 3 | Improvement from baseline, API [4, 14]: 25% | Improvement from baseline, WEP [4, 14]: 33% | Improvement from baseline, WPI [4, 14]: 40% | ability to handle emotional disturbance due to team losses ([4]; Tylenol 325 mg, 4 times daily for 10 days): did not report improvement | elimination/reduction of emotional and physical pain symptoms ([4]; naltrexone and acetaminophen for one month, acetaminophen alone): 25%-40% | relief of physical pain (low back, foot) [1]: without significant relief | API, average pain intensity (0-10 NRS) [5, 15]: 8 | Insomnia (0-10 NRS) [5, 15]: 9 | PGIC (1-7 Likert) [5, 15]: 5 | PRSI, Pain Related Sleep Interference (0-10 NRS) [5, 15]: 9 | WEP, Worst Emotional Pain (0-10 NRS) [5, 15]: 6 | WPI, Worst Pain Intensity (0-10 NRS) [5, 15]: 9 | emotional pain (NRS) [5, 16]: 6 /10 | insomnia improved by [5, 16]: 1 point | pain level improved by [5, 16]: 1 point | emotional pain (patient report) [6]: did not notice a change | back pain (patient report) ([6]; within three days): slight improvement | API, average pain intensity (0-10 NRS) [7, 17]: 2.5 | Insomnia (0-10 NRS) [7, 17]: 2 | PGIC (1-7 Likert) [7, 17]: 5 | PRSI, Pain Related Sleep Interference (0-10 NRS) [7, 17]: 4 | WEP, Worst Emotional Pain (0-10 NRS) [7, 17]: 3 | WPI, Worst Pain Intensity (0-10 NRS) [7, 17]: 4 | back/physical pain (patient report) [7, 18]: improved their back pain | emotional pain (patient report) [7, 18]: remained unchanged | API, average pain intensity (0-10 NRS) [8]: 5 | Insomnia (0-10 NRS) [8]: 10 | PGIC (1-7 Likert) [8]: 5 | PRSI, Pain Related Sleep Interference (0-10 NRS) [8]: 3.5 | WEP, Worst Emotional Pain (0-10 NRS) [8]: 10 | WPI, Worst Pain Intensity (0-10 NRS) [8]: 7 | API, average pain intensity (0-10 NRS) [2, 10]: 3.5 | Insomnia (0-10 NRS) [2, 10]: 5.5 | PRSI, Pain Related Sleep Interference (0-10 NRS) [2, 10]: 4.5 | WEP, Worst Emotional Pain (0-10 NRS) [2, 10]: 5.0 | WPI, Worst Pain Intensity (0-10 NRS) [2, 10]: 4.5 | PGIC (1-7 Likert) [2, 10]: 5 | emotional pain due to separation from child (patient report) ([2]; naltrexone/clonidine, acetaminophen 325 mg four times daily 5 days, naltrexone alone 12 days, naltrexone 2.25 mg and acetaminophen 325 mg four times daily almost three months): same level of emotional pain

CNS(=O)(=O)Cc1ccc2[nH]cc(CCN(C)C)c2c1 [sumatriptan]
2-hour headache (migraine) pain-free (migraine): 25%

Cc1nnc2n1-c1ccc(Cl)cc1C(c1ccccc1)=NC2 [xanax]
relief of emotional pain (patient report) [9]: did not help
